Test results taken from US8507464B2, “Phosphoramidate alkylator prodrugs” (Threshold Pharmaceuticals, Inc., priority 2005, dated 2013).
Read-outs that look alike come from different tables or passages of the source.

Legend:
H460 cell line = assay: Anti-proliferation assay, hypoxia vs normoxia (Table 1A); conditions: for IC50: Homo sapiens; for HCR P: ratio of IC50 in normoxia and hypoxia
NCI-H460 cells [1] = assay: Antiproliferation assay - oxygen dependence; assay type: cell-based, human
Excerpt: . […] The calculated IC50 values (μM) are tabulated in Table Y1 (H460 cells) or Table Y2 (HT29 cells) below.

NCI-H460 cells [2] = assay: Antiproliferation assay (Alamar Blue), anoxia vs air
[3] = assay type: physicochemical; conditions: glassy carbon, Ag/AgCl reference; for Reduction Potentials, 100 mV/sec: scan rate 100 mV/sec; for Reduction Potentials, 10,000 mV/sec: scan rate 10,000 mV/sec
HT29 = assay: Anti-proliferation assay, hypoxia vs normoxia (Table 1B); conditions: for IC50: Homo sapiens
in vivo [4] = conditions: CD-1, mouse, 50 mg/kg
HT29 cells = assay: Antiproliferation assay (Alamar Blue), anoxia vs air; conditions: Homo sapiens, HT-29, 2 h
in vivo [5] = assay: in vivo
[6] = system: mouse (MLM) liver microsomal proteins; assay type: in vitro ADME; conditions: Table 2B
[7] = Plasma stability (Table 2B)
human H460 cells = assay: Clonogenic survival assay, hypoxia vs normoxia (Table 1A); conditions: for IC90: Homo sapiens
MES-SA cells = assay: Antiproliferation assay (Alamar Blue), anoxia vs air; conditions: Homo sapiens, 2 h
HCT116 = assay: Anti-proliferation assay, hypoxia vs normoxia (Table 1B); conditions: for IC50: Homo sapiens
[8] = system: H460 lung carcinoma spheroids; assay: Spheroid model, clonogenic survival; conditions: Homo sapiens, NCI-H460, 2 h, read-out: IC90 H460 Spheroid 10% O2
NCI-H460 cells [9] = assay: Clonogenic assay - oxygen dependence; conditions: Homo sapiens
[10] = NCI-H460, read-out: Hypoxia P (proliferation IC50)
[11] = NCI-H460, read-out: Normoxia P (proliferation IC50)
[12] = Homo sapiens, NCI-H460, read-out: IC50 in H460 cells, 0.1% O2
[13] = Homo sapiens, NCI-H460, read-out: IC50 in H460 cells, 0.6% O2
[14] = Homo sapiens, NCI-H460, read-out: IC50 in H460 cells, 1% O2
[15] = Homo sapiens, NCI-H460, read-out: IC50 in H460 cells, 10% O2
[16] = Homo sapiens, NCI-H460; read-out: IC50 in H460 cells, Air
[17] = Homo sapiens, NCI-H460; read-out: IC50 in H460 cells, N2
[18] = Homo sapiens, NCI-H460, 2 h, read-out: IC50 H460 Air, air, 2 h exposure
[19] = Homo sapiens, NCI-H460, 2 h, read-out: IC50 H460 Anoxia, anoxia, 2 h exposure
[20] = HT-29, read-out: HT29 P H (proliferation IC50, hypoxia)
[21] = HT-29, read-out: HT29 P N (proliferation IC50, normoxic)
[22] = CD-1, Balb/c for Compound 1, mouse, iv
[23] = Homo sapiens, NCI-H460, read-out: IC50 in H460 cells, Air
[24] = Homo sapiens, NCI-H460, read-out: IC50 in H460 cells, N2
[25] = Homo sapiens, NCI-H460, read-out: IC50 in H460 cells, 0.3% O2

## CN(CCCl)P(=O)(OCc1cnc([N+](=O)[O-])n1C)N(C)CCCl [Compound 5]
H460 cell line; [10]
  IC50: 4.5 µM
H460 cell line; [11]
  IC50: 3.5 µM
H460 cell line
  HCR P: 1
NCI-H460 cells [1]; [12]
  IC50: 1 µM
NCI-H460 cells [1]; [13]
  IC50: 1 µM
NCI-H460 cells [1]; [14]
  IC50: 10 µM
NCI-H460 cells [1]; [15]
  IC50: 5 µM
NCI-H460 cells [1]; [16]
  IC50: 40 µM
NCI-H460 cells [1]; [17]
  IC50: 0.03 µM
NCI-H460 cells [2]; [18]
  IC50: 6 µM
NCI-H460 cells [2]; [19]
  IC50: 0.05 µM
[3]
  Reduction Potentials, 100 mV/sec: −606 mV
  Reduction Potentials, 10,000 mV/sec: −634 mV
HT29
  HT29 HCR P: >10
HT29; [20]
  IC50: 10 µM
HT29; [21]
  IC50: > 100 µM
In vivo [4]; ip
  AUC: 57400 ng·h/mL
  Cmax: 3000 ng/mL
  Tmax: 5 min
  half-life: 2.56 min
In vivo [4]; iv
  AUC: 270000 ng·h/mL
  Cmax: 16900 ng/mL
  Tmax: 5 min
  half-life: 4.67 min
HT29 cells; read-out: IC50 HT29 Air
  IC50: > 100 µM
HT29 cells; read-out: IC50 HT29 Anoxia
  IC50: 10 µM
In vivo [5]; CD-1 (Compounds 5, 23, 36), Balb/c (Compound 1), mouse, iv
  clearance: 185 mL/min/kg
In vivo [5]; CD-1, Balb/c for Compound 1, mouse, ip
  Cmax: 3000 ng/mL
In vivo [5]; [22]
  AUC: 4500 ng·h/mL
  Cmax: 16900 ng/mL
  Vd: 1.25 L/kg
In vivo [5]; CD-1, Balb/c for Compound 1, mouse, iv, t ½, intravenous administration in mice, mice
  half-life: 4.8 min
In vivo [5]; CD-1, mouse, ip
  AUC: 1000 ng·h/mL
[6]
  Metabolic stability (MLM) (% at 30 min): 5%
[6]; parentheses not explained
  Metabolic stability (MLM), value in parentheses: (20) %
[7]
  Plasma stability (% at 30 min): 100%
[7]; parentheses not explained
  Plasma stability, value in parentheses: (85) %

## Cn1c(COP2(=O)N(CCCl)CCCN2CCCl)cnc1[N+](=O)[O-] [Compound 16]
H460 cell line; [10]
  IC50: 1.6 µM
H460 cell line; [11]
  IC50: 100 µM
H460 cell line
  HCR P: 60
NCI-H460 cells [1]; [12]
  IC50: 10 µM
NCI-H460 cells [1]; [13]
  IC50: 10 µM
NCI-H460 cells [1]; [15]
  IC50: 100 µM
NCI-H460 cells [1]; [16]
  IC50: > 100 µM
NCI-H460 cells [1]; [17]
  IC50: 0.3 µM
NCI-H460 cells [2]; [18]
  IC50: > 100 µM
NCI-H460 cells [2]; [19]
  IC50: 1.6 µM
Human H460 cells; NCI-H460, read-out: Hypoxia C (clonogenic IC90)
  IC90: 0.2 µM
Human H460 cells; NCI-H460, read-out: Normoxia C (clonogenic IC90)
  IC90: 35 µM
Human H460 cells; ratio of IC90 in normoxia and hypoxia
  HCR C: 175
[6]
  Metabolic stability (MLM) (% at 30 min): 40%

## O=[N+]([O-])c1ccc(COP(=O)(NCCCl)NCCCl)s1 [Compound 26]
H460 cell line; [10]
  IC50: 0.1 µM
H460 cell line; [11]
  IC50: 35 µM
H460 cell line
  HCR P: 350
NCI-H460 cells [1]; [12]
  IC50: 3 µM
NCI-H460 cells [1]; [13]
  IC50: 6 µM
NCI-H460 cells [1]; [14]
  IC50: 5 µM
NCI-H460 cells [1]; [15]
  IC50: 10 µM
NCI-H460 cells [1]; [23]
  IC50: 40 µM
NCI-H460 cells [1]; [24]
  IC50: 0.3 µM
NCI-H460 cells [2]; [18]
  IC50: 35 µM
NCI-H460 cells [2]; [19]
  IC50: 0.1 µM
[6]
  Metabolic stability (MLM) (% at 30 min): 56%
[7]
  Plasma stability (% at 30 min): 85%

## O=[N+]([O-])c1ccc(COP(=O)(NCCBr)NCCBr)s1 [Compound 34]
H460 cell line; [10]
  IC50: < 0.01 µM
H460 cell line; [11]
  IC50: 1.8 µM
H460 cell line
  HCR P: >180
NCI-H460 cells [1]; [25]
  IC50: 1 µM
NCI-H460 cells [1]; [23]
  IC50: 5 µM
NCI-H460 cells [1]; [24]
  IC50: 0.01 µM
NCI-H460 cells [2]; [18]
  IC50: 1.8 µM
NCI-H460 cells [2]; [19]
  IC50: 0.01 µM
[3]
  Reduction Potentials, 100 mV/sec: −584 mV
  Reduction Potentials, 10,000 mV/sec: −663 mV
HT29
  HT29 HCR P: 70
HT29; [20]
  IC50: 0.8 µM
HT29; [21]
  IC50: 57 µM
MES-SA cells; read-out: IC50 MES-SA Air
  IC50: 10 µM
MES-SA cells; read-out: IC50 MES-SA Anoxia
  IC50: 0.13 µM
HT29 cells; read-out: IC50 HT29 Air
  IC50: 57 µM
HT29 cells; read-out: IC50 HT29 Anoxia
  IC50: 0.8 µM
HCT116
  HCT116 HCR: 77
HCT116; HCT-116, read-out: HCT116 P H (proliferation IC50, hypoxia)
  IC50: 0.13 µM
HCT116; HCT-116, read-out: HCT116 P N (proliferation IC50, normoxic)
  IC50: 10 µM
[6]
  Metabolic stability (MLM) (% at 30 min): 28%
[7]; at 20 min
  Plasma stability (at 20 min): 85%

## Cn1c(COP2(=O)N(CCBr)CCCN2CCBr)cnc1[N+](=O)[O-] [Compound 35]
H460 cell line; [10]
  IC50: 0.075 µM
H460 cell line; [11]
  IC50: 50 µM
H460 cell line
  HCR P: 625
NCI-H460 cells [1]; [25]
  IC50: 6 µM
NCI-H460 cells [1]; [13]
  IC50: 5 µM
NCI-H460 cells [1]; [14]
  IC50: 40 µM
NCI-H460 cells [1]; [16]
  IC50: 50 µM
NCI-H460 cells [1]; [17]
  IC50: 0.05 µM
NCI-H460 cells [2]; [18]
  IC50: 50 µM
NCI-H460 cells [2]; [19]
  IC50: 0.075 µM
NCI-H460 cells [2]; read-out: IC50 H460 Air, air, 2 h exposure
  IC50: 55 µM
MES-SA cells; read-out: IC50 MES-SA Air
  IC50: 100 µM
MES-SA cells; read-out: IC50 MES-SA Anoxia
  IC50: 1 µM
[8]
  IC90: 22 µM
HT29 cells; read-out: IC50 HT29 Air
  IC50: > 100 µM
HT29 cells; read-out: IC50 HT29 Anoxia
  IC50: 1.8 µM
[6]
  Metabolic stability (MLM) (% at 30 min): 56%
NCI-H460 cells [9]; NCI-H460, read-out: IC90 H460 0.6% O2
  IC90: 3 µM
NCI-H460 cells [9]; NCI-H460, read-out: IC90 H460 Air
  IC90: 30 µM
NCI-H460 cells [9]; NCI-H460, read-out: IC90 H460 N2
  IC90: 0.5 µM
[7]
  Plasma stability (% at 30 min): 85%
